Results on four compounds are retold here after ChEMBL document CHEMBL1201862, “PubChem BioAssay data set” (2004).

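Growth conditions: 96-well plates. Treatment: test compound, 48 hours, 5 concentrations. Analysis: linear interpolation between bracketing concentrations; unreached endpoints set to highest concentration. GI50 marks 50% less growth.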 The source made the active and inactive calls. No stated cut-off is given here; in the data, active = GI50 up to about 1.1 µM and inactive = higher.

Holding throughout (assay): growth of human tumour cells (NCI), 48 h
The subject of assay [1] is A498.
Assay [2] has as its system ACHN.
Assay [3] relates to CAKI-1.
In assay [4] the test system is EKVX.
Assay [5] has as its system IGROV-1.
The subject of assay [6] is K562.
For assay [7], the system named is MCF7.
Assay [8] has as its system MDA-MB-435.
Assay [9] relates to MDA-N.
The test system of assay [10] is NCI-H226.
The test system of assay [11] is NCI-H23.
The subject of assay [12] is NCI/ADR-RES.
For assay [13], the system named is PC-3.
In assay [14] the test system is SK-MEL-5.
The test system of assay [15] is SK-OV-3.
Assay [16] deals with SR.
In assay [17] the test system is T47D.
The test system of assay [18] is UACC-257.
Assay [19] concerns SK-MEL-2.

Take `Clc1ccc(Nc2ncco2)cc1Cl`: the GI50 in assay [1], in assay [2], in assay [3], in assay [4], in [5] and in [6] was > 10 µM (inactive) each time. The GI50 in assay [7], in [8], in [9], in assay [10], in [11] and in assay [12] was > 10 µM (inactive) each time. In addition, the GI50 in assay [13], in assay [14], in assay [15], in assay [16], in assay [17] and in assay [18] was > 10 µM (inactive) each time.
For the compound `CC(=O)NC(CSC1=C2NC(=O)\C=C/C=C\C=C/C(C)C(O)CC(=O)/C(C)=C\CC(O)/C=C\C(C)C(O)C(C)C=C(C)C(=O)c3c(O)c(C)cc(c3C1=O)C2=O)C(=O)O` (centres undefined), the GI50 is > 100 µM (inactive) in assay [1]; 66.4 µM (inactive) in assay [2]; > 100 µM (inactive) in assay [3]; > 100 µM (inactive) in assay [4]; 43.1 µM (inactive) in assay [5]; 39.1 µM (inactive) in [6]. In addition, the GI50 in assay [7] is 53.3 µM (inactive); in [8] it was > 100 µM (inactive); in assay [9], 51.4 µM (inactive); in assay [10], > 100 µM (inactive); in assay [11] it was > 100 µM (inactive); in assay [12] it was > 100 µM (inactive). Besides, the GI50 is > 100 µM (inactive) in assay [13]; 80.7 µM (inactive) in assay [19]; 39.3 µM (inactive) in assay [14]; > 100 µM (inactive) in assay [15]; 33.5 µM (inactive) in assay [16]; 91 µM (inactive) in [17]. Further, the GI50 in assay [18] is 41.8 µM (inactive).
For `Cn1nc2ccc([N+](=O)[O-])cc2[n+]1[O-]`, the GI50 in assay [1] was 87.9 µM (inactive); in assay [2], > 100 µM (inactive); in [3] it was > 100 µM (inactive); in assay [4] it was > 100 µM (inactive); in [5] it was > 100 µM (inactive); in [6], > 100 µM (inactive). Moreover, the GI50 in [7] was > 100 µM (inactive); in assay [8], > 100 µM (inactive); in [9], 90.4 µM (inactive); in assay [10], > 100 µM (inactive); in assay [11] it was > 100 µM (inactive); in [12] it was > 100 µM (inactive). In addition, the GI50 in assay [13], in assay [19], in assay [14], in assay [15], in assay [16] and in [17] was > 100 µM (inactive) throughout. The GI50 in assay [18] was > 100 µM (inactive).
Regarding `CN(Cc1cnc2nc(N)nc(N)c2n1)c1ccc(C(=O)NC(CCS(=O)(=O)O)C(=O)O)cc1` (centres undefined), the GI50 in assay [1] was > 100 µM (inactive); in assay [2] it was 0.527 µM (active); in assay [3], > 100 µM (inactive); in [4] it was 1.31 µM (inactive); in [5], 0.553 µM (active); in assay [7], 0.268 µM (active). In addition, the GI50 in assay [8] was 0.426 µM (active); in [9], 0.35 µM (active); in assay [10], 15.7 µM (inactive); in assay [11] it was 1.88 µM (inactive); in assay [12], 2.31 µM (inactive); in [13] it was 0.0665 µM (active). In addition, the GI50 in assay [19] was > 100 µM (inactive); in assay [14], 1.79 µM (inactive); in assay [15], > 100 µM (inactive); in [16], 0.136 µM (active); in [17], > 100 µM (inactive); in assay [18], > 100 µM (inactive).
